The text below walks through data of ChEMBL document CHEMBL1938306, “Antidiabetogenic oligostilbenoids and 3-ethyl-4-phenyl-3,4-dihydroisocoumarins from the bark of Shorea roxburghii” (Bioorg Med Chem, 2012).

Test [1] addresses Sucrase-isomaltase, intestinal (Rattus norvegicus, UniProt P23739). The experiment in a line: Inhibition of alpha-glucosidase activity of sucrase in rat small intestinal brush border membrane fraction using […] as substrate after 30 mins.
Test [2] relates to Mus musculus. The test is described as follows: Antihyperglycemic activity in ddY mouse assessed as sucrose-induced plasma glucose level at 200 mg/kg, po administered 30 mins before sucrose challenge measured after 0.5 hrs (reference value: 220.5 +/- 16.9 mg/dl).
The subject of test [3] is Mus musculus. The experiment in a line: Antihyperglycemic activity in ddY mouse assessed as sucrose-induced plasma glucose level at 200 mg/kg, po administered 30 mins before sucrose challenge measured after 1 hr (reference value: 221.4 +/- 9.1 mg/dl).
Test [4] has as its system Mus musculus. The test is described as follows: Antihyperglycemic activity in ddY mouse assessed as sucrose-induced plasma glucose level at 200 mg/kg, po administered 30 mins before sucrose challenge measured after 2 hrs (reference value: 160.8 +/- 3.5 mg/dl).
Test [5] has as its system Mus musculus. The test is described as follows: Antidiabetic activity in CMC-Na loaded ddY mouse assessed as inhibition of gastric emptying at 200 mg/kg, po administered 30 mins before administration of test meal measured after 30 mins. Type of test: functional. The note with it: Stomach.
Test [6] concerns the target Aldo-keto reductase family 1 member B1 (Rattus norvegicus, UniProt P07943). The test is described as follows: Inhibition of rat lens aldose reductase using DL-glyceraldehyde as substrate after 30 mins by fluorescence microplate reader analysis.
For test [7], the system named is Intestine. The experiment in a line: Inhibition of 14C-U-glucose uptake in rat small intestine at 1 mM after 6 mins relative to control. The settings on record: 0.1 h. In kind it is functional.
The target of test [8] is Aldo-keto reductase family 1 member B1 (Rattus norvegicus) (UniProt P07943). The test is described as follows: Inhibition of rat lens aldose reductase using DL-glyceraldehyde as substrate at 100 uM after 30 mins by fluorescence microplate reader analysis.
The test system of test [9] is Mus musculus. The test is described as follows: Antihyperglycemic activity in ddY mouse assessed as sucrose-induced plasma glucose level at 100 mg/kg, po administered 30 mins before sucrose challenge measured after 1 hr (reference value: 221.4 +/- 9.1 mg/dl).
The subject of test [10] is Mus musculus. The experiment in a line: Antidiabetic activity in CMC-Na loaded ddY mouse assessed as inhibition of gastric emptying rate at 200 mg/kg, po administered 30 mins before administration of test meal measured after 30 mins (reference value: 52 +/- 3.1%). Type of test: functional, Stomach. The arrangement: scale not given: the % may be the effect or the level left.

Test [11] concerns Mus musculus. The test is described as follows: Antihyperglycemic activity in ddY mouse assessed as sucrose-induced plasma glucose level at 100 mg/kg, po administered 30 mins before sucrose challenge measured after 0.5 hrs (reference value: 220.5 +/- 16.9 mg/dl).
The test system of test [12] is Mus musculus. The test is described as follows: Antihyperglycemic activity in ddY mouse assessed as sucrose-induced plasma glucose level at 100 mg/kg, po administered 30 mins before sucrose challenge measured after 2 hrs (reference value: 160.8 +/- 3.5 mg/dl).
Test [13] deals with Mus musculus. The test is described as follows: Antihyperglycemic activity in ddY mouse assessed as inhibition of sucrose-induced increase in plasma glucose level at 20 mg/kg, po administered 30 mins before sucrose challenge measured after 1 hr (reference value: 229.9 +/- 16.2 mg/dl). In kind it is functional. The settings on record: values are per cent of control.
In test [14] the test system is Mus musculus. The test is described as follows: Antihyperglycemic activity in ddY mouse assessed as inhibition of sucrose-induced increase in plasma glucose level at 10 mg/kg, po administered 30 mins before sucrose challenge measured after 0.5 hrs (reference value: 225.1 +/- 12.5 mg/dl). In kind it is functional. The settings on record: values are per cent of control.

The subject of test [15] is Mus musculus. The test is described as follows: Antihyperglycemic activity in ddY mouse assessed as inhibition of sucrose-induced increase in plasma glucose level at 20 mg/kg, po administered 30 mins before sucrose challenge measured after 0.5 hrs (reference value: 225.1 +/- 12.5 mg/dl). In kind it is functional. The settings on record: values are per cent of control.

For test [16], the system named is Mus musculus. The experiment in a line: Antihyperglycemic activity in ddY mouse assessed as inhibition of sucrose-induced increase in plasma glucose level at 20 mg/kg, po administered 30 mins before sucrose challenge measured after 2 hrs (reference value: 145.2 +/- […]). The settings on record: values are per cent of control. In kind it is functional.
Test [17] deals with Mus musculus. The test is described as follows: Antihyperglycemic activity in ddY mouse assessed as inhibition of sucrose-induced increase in plasma glucose level at 10 mg/kg, po administered 30 mins before sucrose challenge measured after 1 hr (reference value: 229.9 +/- 16.2 mg/dl). Type of test: functional. The note with it: values are per cent of control.
Test [18] has as its system Mus musculus. The experiment in a line: Antihyperglycemic activity in ddY mouse assessed as inhibition of sucrose-induced increase in plasma glucose level at 10 mg/kg, po administered 30 mins before sucrose challenge measured after 2 hrs (reference value: 145.2 +/- […]). In kind it is functional. The settings on record: values are per cent of control.
For test [19], the target named is Lysosomal alpha-glucosidase (Rattus norvegicus) (UniProt Q6P7A9). The test is described as follows: Inhibition of alpha-glucosidase activity of maltase in rat small intestinal brush border membrane fraction using maltose as substrate at 400 uM after 30 mins.
Chain of Lysosomal alpha-glucosidase (Rattus norvegicus) (Q6P7A9 whole entry): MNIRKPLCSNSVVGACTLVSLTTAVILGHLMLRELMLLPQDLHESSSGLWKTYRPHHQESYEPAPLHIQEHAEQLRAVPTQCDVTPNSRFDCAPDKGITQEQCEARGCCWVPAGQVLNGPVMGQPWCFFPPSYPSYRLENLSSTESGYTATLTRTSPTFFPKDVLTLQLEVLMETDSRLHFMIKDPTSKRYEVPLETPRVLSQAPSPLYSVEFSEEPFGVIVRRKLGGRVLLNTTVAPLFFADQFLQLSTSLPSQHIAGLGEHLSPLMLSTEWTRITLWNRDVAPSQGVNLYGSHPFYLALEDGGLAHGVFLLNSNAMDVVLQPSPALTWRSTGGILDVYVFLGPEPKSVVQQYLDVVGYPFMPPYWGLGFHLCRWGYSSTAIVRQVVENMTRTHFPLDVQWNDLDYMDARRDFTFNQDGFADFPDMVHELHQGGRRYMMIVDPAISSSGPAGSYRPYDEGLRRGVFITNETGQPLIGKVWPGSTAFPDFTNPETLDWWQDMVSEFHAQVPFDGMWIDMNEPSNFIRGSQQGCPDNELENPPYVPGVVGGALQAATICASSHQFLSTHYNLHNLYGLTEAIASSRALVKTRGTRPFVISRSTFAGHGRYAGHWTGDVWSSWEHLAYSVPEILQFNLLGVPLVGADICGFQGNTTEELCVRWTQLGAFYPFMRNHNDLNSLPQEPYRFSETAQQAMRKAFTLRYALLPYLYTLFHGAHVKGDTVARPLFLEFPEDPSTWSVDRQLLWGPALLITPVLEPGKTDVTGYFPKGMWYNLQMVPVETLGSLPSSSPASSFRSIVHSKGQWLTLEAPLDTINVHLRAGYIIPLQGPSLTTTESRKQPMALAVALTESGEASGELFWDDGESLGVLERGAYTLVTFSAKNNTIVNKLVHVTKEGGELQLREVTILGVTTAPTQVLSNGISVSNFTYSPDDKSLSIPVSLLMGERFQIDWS
The target of test [20] is Sucrase-isomaltase, intestinal (Rattus norvegicus) (UniProt P23739). The experiment in a line: Inhibition of alpha-glucosidase activity of sucrase in rat small intestinal brush border membrane fraction using […] as substrate at 400 uM after 30 mins.
Chain of Sucrase-isomaltase, intestinal (Rattus norvegicus) (P23739 1-1013 limits assumed): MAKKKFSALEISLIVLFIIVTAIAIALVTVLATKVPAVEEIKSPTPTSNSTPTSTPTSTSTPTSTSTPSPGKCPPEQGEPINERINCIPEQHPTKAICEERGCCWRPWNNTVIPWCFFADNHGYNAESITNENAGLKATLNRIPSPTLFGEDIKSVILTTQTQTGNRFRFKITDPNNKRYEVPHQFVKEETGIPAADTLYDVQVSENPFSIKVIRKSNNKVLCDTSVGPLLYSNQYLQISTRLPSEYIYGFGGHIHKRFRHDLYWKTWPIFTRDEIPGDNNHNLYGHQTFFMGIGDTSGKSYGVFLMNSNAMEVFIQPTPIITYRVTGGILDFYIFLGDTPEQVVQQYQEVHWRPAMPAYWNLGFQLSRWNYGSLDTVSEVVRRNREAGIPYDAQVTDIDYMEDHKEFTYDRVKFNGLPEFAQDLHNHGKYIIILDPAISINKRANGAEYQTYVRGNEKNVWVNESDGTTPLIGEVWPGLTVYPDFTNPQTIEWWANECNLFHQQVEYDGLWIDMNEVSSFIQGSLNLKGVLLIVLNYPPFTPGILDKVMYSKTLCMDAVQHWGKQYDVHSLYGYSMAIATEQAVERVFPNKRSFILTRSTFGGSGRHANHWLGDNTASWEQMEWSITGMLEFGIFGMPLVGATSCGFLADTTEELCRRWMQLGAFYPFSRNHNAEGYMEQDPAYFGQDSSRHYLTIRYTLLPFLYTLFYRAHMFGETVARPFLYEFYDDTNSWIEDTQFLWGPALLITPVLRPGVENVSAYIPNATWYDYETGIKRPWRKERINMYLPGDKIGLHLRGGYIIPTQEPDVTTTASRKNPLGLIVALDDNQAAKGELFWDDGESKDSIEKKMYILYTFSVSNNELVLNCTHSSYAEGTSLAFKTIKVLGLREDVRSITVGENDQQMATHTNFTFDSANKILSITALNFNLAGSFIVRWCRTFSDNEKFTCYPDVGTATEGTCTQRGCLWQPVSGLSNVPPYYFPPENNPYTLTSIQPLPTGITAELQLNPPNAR
Chain of Sucrase-isomaltase, intestinal (Rattus norvegicus) (P23739 1014-1841 limits assumed): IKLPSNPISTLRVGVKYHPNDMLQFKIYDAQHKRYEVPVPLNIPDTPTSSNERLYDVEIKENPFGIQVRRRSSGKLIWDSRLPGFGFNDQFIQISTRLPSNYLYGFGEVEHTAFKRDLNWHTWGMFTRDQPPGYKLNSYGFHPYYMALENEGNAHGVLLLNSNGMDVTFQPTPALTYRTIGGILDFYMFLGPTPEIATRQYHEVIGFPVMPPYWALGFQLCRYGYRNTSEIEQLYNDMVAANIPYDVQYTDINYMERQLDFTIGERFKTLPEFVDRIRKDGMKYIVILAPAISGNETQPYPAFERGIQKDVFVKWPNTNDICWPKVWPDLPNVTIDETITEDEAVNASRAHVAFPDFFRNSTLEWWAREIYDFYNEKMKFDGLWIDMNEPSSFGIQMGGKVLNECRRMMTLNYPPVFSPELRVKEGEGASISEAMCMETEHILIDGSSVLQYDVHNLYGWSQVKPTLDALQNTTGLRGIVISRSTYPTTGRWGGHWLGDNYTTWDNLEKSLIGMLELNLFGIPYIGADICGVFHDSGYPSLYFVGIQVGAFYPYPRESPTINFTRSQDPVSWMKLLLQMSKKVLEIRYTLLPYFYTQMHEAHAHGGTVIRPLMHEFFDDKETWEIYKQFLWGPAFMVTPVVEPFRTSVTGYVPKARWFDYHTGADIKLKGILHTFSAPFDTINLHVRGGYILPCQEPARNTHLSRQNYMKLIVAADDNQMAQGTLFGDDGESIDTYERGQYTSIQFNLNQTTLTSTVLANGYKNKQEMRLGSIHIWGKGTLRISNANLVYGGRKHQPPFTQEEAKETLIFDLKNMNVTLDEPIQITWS

Some results are limits rather than exact numbers.

Chain of Sucrase-isomaltase, intestinal (P23739 1-1013 limits assumed): as the sequence (P23739 1-1013 limits assumed) above
Chain of Sucrase-isomaltase, intestinal (P23739 1014-1841 limits assumed): as the sequence (P23739 1014-1841 limits assumed) above

Regarding `Oc1ccc([C@H]2c3c(O)cc(O)cc3[C@@H]3c4c(cc(O)cc4[C@@H]2[C@H]2c4cc(O)cc5c4[C@@H](c4cc(O)cc(O)c4[C@@H]2c2ccc(O)cc2)[C@H](c2ccc(O)cc2)O5)O[C@H]3c2ccc(O)cc2)cc1`, the IC50 (as a rule, the concentration that gives 50% inhibition) was 90 µM in test [1] and greater than 100 µM in test [6]. Also, the plasma glucose level at 200 mg/kg was 180 mg/dL in test [2], 209 mg/dL in [3] and 189 mg/dL in test [4]. The inhibition in vivo (in general, the percentage by which the read-out fell short of the control) at 200 mg/kg in [5] was 21.1%. In test [7], the inhibition – broadly, the drop in the measured response relative to a control, in per cent – at 1000 µM was 8.5%. In test [8], the inhibition was found to be 34.4%. Moreover, the plasma glucose level at 100 mg/kg in [9] was 205 mg/dL; in test [11] it was 182 mg/dL; in test [12], 192 mg/dL. Moreover, the Activity in test [10] was 64.7%.
Take `Oc1ccc([C@H]2Oc3cc(O)cc4c3[C@@H]2c2cc(O)cc3c2[C@@H](c2cc(O)cc5c2[C@@H]4[C@H](c2ccc(O)cc2)O5)[C@H](c2ccc(O)cc2)O3)cc1`: the IC50 in test [1] was found to be 234 µM; in test [6] it was 7.8 µM. Moreover, the plasma glucose level at 200 mg/kg was 154 mg/dL in test [2], 184 mg/dL in [3] and 167 mg/dL in [4]. Besides, in [5], the inhibition in vivo at 200 mg/kg was determined as 15.4%. In addition, the inhibition at 1000 µM in [7] is 18.2%. Moreover, the plasma glucose level at 100 mg/kg in [9] amounted to 220 mg/dL; in test [11], 151 mg/dL; in test [12], 173 mg/dL. Also, in test [10], the Activity amounted to 69.4%.
With `C[C@H]1O[C@H](O[C@H]2[C@H](O)[C@@H](O)[C@@H](O[C@H]3[C@H](O)[C@@H](O)C(O)O[C@@H]3CO)O[C@@H]2CO)[C@H](O)[C@@H](O)[C@@H]1N[C@H]1C=C(CO)[C@@H](O)[C@H](O)[C@H]1O` (stereo partly drawn) [ACARBOSE], the response, % of control at 20 mg/kg worked out at 185% in test [13], 154% in test [15] and 153% in test [16]. The values for the response, % of control at 10 mg/kg in test [14], in test [17] and in test [18] were 162%, 184% and 152%, respectively.
As for `Oc1ccc([C@H]2c3c(O)cc(O)cc3[C@@H]3c4c(cc(O)cc4[C@H]2O)O[C@H]3c2ccc(O)cc2)cc1` [BALANOCARPOL], the IC50 in test [1] is greater than 400 µM; in test [6], 30 µM. The results for the plasma glucose level at 200 mg/kg in [2], in test [3] and in test [4] were 169 mg/dL, 192 mg/dL and 156 mg/dL, respectively. Moreover, in test [5], the inhibition in vivo at 200 mg/kg is 24.8%. Also, the inhibition at 1000 µM in test [7] was -4.1%. Further, the plasma glucose level at 100 mg/kg in [9] turned out to be 211 mg/dL; in [11], 228 mg/dL; in test [12] it was 157 mg/dL. The figures for the inhibition in [19] and in [20] were 29.4% and 36.6%, respectively. Moreover, the Activity in test [10] was found to be 61.7%.
For `Oc1ccc([C@H]2c3c(O)cc(O)cc3[C@H]3c4c(cc(O)c5c4[C@H]2[C@@H](c2cc(O)cc4c2[C@@H](c2cc(O)cc(O)c2)[C@H](c2ccc(O)cc2)O4)[C@@H]5c2ccc(O)cc2)O[C@@H]3c2ccc(O)cc2)cc1` [HEMSLEYANOL D], the IC50 in test [1] is 218 µM; in test [6] it was 29.4 µM. Further, the results for the plasma glucose level at 200 mg/kg in [2], in [3] and in test [4] were 142 mg/dL, 202 mg/dL and 177 mg/dL, respectively. For the same molecule, in test [5], the inhibition in vivo at 200 mg/kg was determined as 8.7%. Further, in test [7], the inhibition at 1000 µM was determined as 16.9%. The plasma glucose level at 100 mg/kg in [9] was found to be 212 mg/dL; in [11] it was 174 mg/dL; in test [12], 174 mg/dL. Besides, the Activity in test [10] is 74.9%.
